In patent US20240182453A1, “NOVEL SUBSTITUTED PYRAZINE-CARBOXAMIDE DERIVATIVES” (Boehringer Ingelheim International GmbH, priority 2022, published 2024) one finds IC50 data, which are given here for 31 compounds.

Chain of human metabotropic Glutamate 4 receptor (mGluR4) (Q14833 33-912): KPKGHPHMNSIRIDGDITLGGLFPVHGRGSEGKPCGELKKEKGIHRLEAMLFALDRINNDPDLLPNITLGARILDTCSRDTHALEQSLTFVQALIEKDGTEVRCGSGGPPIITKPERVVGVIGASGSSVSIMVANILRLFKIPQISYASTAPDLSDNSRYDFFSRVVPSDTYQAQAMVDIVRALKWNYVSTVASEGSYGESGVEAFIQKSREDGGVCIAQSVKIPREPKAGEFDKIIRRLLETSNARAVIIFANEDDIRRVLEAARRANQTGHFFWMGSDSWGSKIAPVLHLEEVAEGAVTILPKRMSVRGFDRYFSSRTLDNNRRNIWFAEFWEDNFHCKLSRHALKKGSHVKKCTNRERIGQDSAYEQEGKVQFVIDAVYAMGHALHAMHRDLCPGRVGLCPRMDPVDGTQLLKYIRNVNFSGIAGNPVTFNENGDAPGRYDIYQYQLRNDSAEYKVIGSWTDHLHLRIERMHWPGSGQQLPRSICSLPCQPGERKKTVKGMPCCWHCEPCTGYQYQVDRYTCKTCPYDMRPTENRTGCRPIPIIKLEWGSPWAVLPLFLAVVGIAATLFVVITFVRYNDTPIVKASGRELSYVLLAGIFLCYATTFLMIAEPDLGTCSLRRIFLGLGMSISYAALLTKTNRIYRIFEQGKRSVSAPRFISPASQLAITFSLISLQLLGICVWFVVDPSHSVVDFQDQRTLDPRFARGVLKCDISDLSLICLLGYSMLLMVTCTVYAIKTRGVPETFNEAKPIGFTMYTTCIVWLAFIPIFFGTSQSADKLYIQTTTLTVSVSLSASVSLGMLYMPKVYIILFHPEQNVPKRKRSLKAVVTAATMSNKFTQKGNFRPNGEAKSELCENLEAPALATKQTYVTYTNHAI

This test has as its target human metabotropic Glutamate 4 receptor (mGluR4) (Homo sapiens (Human), UniProt Q14833). In words: Assay A: in vitro testing of mGluR4 potency (glutamate-induced cAMP lowering, HTRF cAMP). Particulars: HEK293 cells overexpressing human mGluR4; 10 uM L-glutamic acid, 1 uM forskolin; compounds of the present invention. The class given is cell-based. The method in brief: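 HEK293 cells overexpressing human mGluR4 treated 30 min at room temperature with compound plus 10 uM L-glutamate, 1 uM forskolin, 0.5 mM IBMX, 0.1% BSA, 1% DMSO. cAMP read by HTRF (665/615 nm ratio), normalized to glutamate (100%) and no-glutamate (0%) controls as percent of control.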
(In general: TR-FRET usually uses a lanthanide donor and a delayed reading to cut background.)
For orientation: IC50 means the concentration at which inhibition is half-maximal. The low end stands for greater potency in that assay, the high end for weaker potency in that assay. As to `Cc1cnc(C(=O)N[C@H](c2nc3cc(F)ccc3n2C(C)C)[C@H]2CCOC2)cn1` [Example 84, N-[(S)-[5-fluoro-1-(propan-2-yl)-1H-1,3-benzodiazol-2-yl][(3R)-oxolan-3-yl]methyl]-5-methylpyrazine-2-carboxamide], 26 nM corresponded to half-maximal inhibition (IC50). That is a double-digit nanomolar value.
The same measure for `CO[C@H](C)[C@H](NC(=O)c1cnc(C)cn1)c1nc2cc(F)c(F)cc2n1C` [Example 85, N-[(1R,2R)-1-(5,6-difluoro-1-methyl-1H-1,3-benzodiazol-2-yl)-2-methoxypropyl]-5-methylpyrazine-2-carboxamide]: 48 nM; for `Cc1cnc(C(=O)N[C@@H](CC2CC2)c2nc3cc(Cl)ccc3n2C)cn1` [Example 86, N-[(1S)-1-(5-chloro-1-methyl-1H-1,3-benzodiazol-2-yl)-2-cyclopropylethyl]-5-methylpyrazine-2-carboxamide]: 10 nM.
In turn, `COCCn1c([C@@H](NC(=O)c2cnc(C)cn2)[C@H]2CCOC2)nc2cc(C(F)(F)F)ccc21` [Example 87, N-[(S)-[1-(2-methoxyethyl)-5-(trifluoromethyl)-1H-1,3-benzodiazol-2-yl][(3R)-oxolan-3-yl]methyl]-5-methylpyrazine-2-carboxamide] showed a 50% inhibitory concentration (IC50) of 12 nM.
In the case of `CO[C@H](C)[C@H](NC(=O)c1cnc(C)cn1)c1nc2c(C)c(Br)ccc2n1C` [Example 88, N-[(1R,2R)-1-(5-bromo-1,4-dimethyl-1H-1,3-benzodiazol-2-yl)-2-methoxypropyl]-5-methylpyrazine-2-carboxamide], the 50% inhibitory concentration (IC50) came to 3 nM.
The same measure for `COCCn1c([C@@H](NC(=O)c2cnc(C)cn2)[C@H]2CCCO2)nc2cc(OC(F)(F)F)ccc21` [Example 89, N-[(R)-[1-(2-methoxyethyl)-5-(trifluoromethoxy)-1H-1,3-benzodiazol-2-yl][(2R)-oxolan-2-yl]methyl]-5-methylpyrazine-2-carboxamide]: 10 nM; for `COCCn1c(C(NC(=O)c2cnc(C)cn2)C2CCCO2)nc2cc(OC(F)(F)F)ccc21` (stereo not shown) [Example 89-2]: 4 nM.
In turn, `COCCn1c([C@@H](NC(=O)c2cnc(C(F)F)cn2)[C@@H]2CCOC2)nc2cc(C(F)(F)F)ccc21` [Example 90, 5-(difluoromethyl)-N-[(S)-[1-(2-methoxyethyl)-5-(trifluoromethyl)-1H-1,3-benzodiazol-2-yl][(3S)-oxolan-3-yl]methyl]pyrazine-2-carboxamide] gave an IC50 of 6 nM.
In turn, `COCCn1c(C(NC(=O)c2cnc(C(F)F)cn2)C2CCOC2)nc2cc(C(F)(F)F)ccc21` (stereo not shown) [Example 90-3] returned a half-maximal inhibitory concentration (IC50) of 13 nM.
In the case of `COCCn1c([C@@H](NC(=O)c2cnc(C)cn2)[C@@H]2CCOC2)nc2cc(Cl)ccc21` [Example 91, N-[(S)-[5-chloro-1-(2-methoxyethyl)-1H-1,3-benzodiazol-2-yl][(3S)-oxolan-3-yl]methyl]-5-methylpyrazine-2-carboxamide] it was 11 nM; in that of `Cc1cnc(C(=O)N[C@@H](CC2CC2)c2nc3cc(Cl)ccc3n2C2CC2)cn1` [Example 92, N-[(1S)-1-(5-chloro-1-cyclopropyl-1H-1,3-benzodiazol-2-yl)-2-cyclopropylethyl]-5-methylpyrazine-2-carboxamide], 18 nM.
As for `Cc1cnc(C(=O)N[C@H](c2nc3cc(C(F)(F)F)ccc3n2C)C2(O)CCC2)cn1` [Example 93, N-[(R)-(1-hydroxycyclobutyl)[1-methyl-5-(trifluoromethyl)-1H-1,3-benzodiazol-2-yl]methyl]-5-methylpyrazine-2-carboxamide], the 50% inhibitory concentration (IC50) was determined as 9 nM.
The same measure for `Cn1c([C@H](CC2CC2)NC(=O)c2cnc(C(F)F)cn2)nc2cc(F)c(F)cc21` [Example 94, N-[(1S)-2-cyclopropyl-1-(5,6-difluoro-1-methyl-1H-1,3-benzodiazol-2-yl)ethyl]-5-(difluoromethyl)pyrazine-2-carboxamide]: 16 nM; for `Cc1cnc(C(=O)N[C@@H](CC2CC2)c2nc3cc(F)ccc3n2CCOC(F)F)cn1` [Example 95, N-[(1S)-2-cyclopropyl-1-{1-[2-(difluoromethoxy)ethyl]-5-fluoro-1H-1,3-benzodiazol-2-yl}ethyl]-5-methylpyrazine-2-carboxamide]: 13 nM; for `Cc1cnc(C(=O)N[C@H](c2nc3cc(C)c(F)cc3n2C)C2CC2)cn1` [Example 96, N-[(S)-cyclopropyl (6-fluoro-1,5-dimethyl-1H-1,3-benzodiazol-2-yl)methyl]-5-methylpyrazine-2-carboxamide]: 15 nM.
For `CCn1c([C@@H](NC(=O)c2cnc(C)cn2)[C@@H]2CCOC2)nc2cc(OC(F)(F)F)ccc21` [Example 97, N-[(S)-[1-ethyl-5-(trifluoromethyoxy)-1H-1,3-benzodiazol-2-yl][(3S)-oxolan-3-yl]methyl]-5-methylpyrazine-2-carboxamide], the half-inhibitory concentration (IC50) was 20 nM.
In turn, `CCn1c([C@@H](NC(=O)c2cnc(C)cn2)C(C)(C)O)nc2cc(OC(F)(F)F)ccc21` [Example 98, N-[(1R)-1-[1-ethyl-5-(trifluoromethoxy)-1H-1,3-benzodiazol-2-yl]-2-hydroxy-2-methylpropyl]-5-methylpyrazine-2-carboxamide] came in with a concentration for half-maximal inhibition (IC50) of 10 nM. This IC50 lies about 2-fold lower than the previous one.
In the case of `O=C(N[C@@H](CC1CC1)c1nc2cc(F)ccc2n1CCOC(F)F)c1cnc(C(F)F)cn1` [Example 99, N-[(1S)-2-cyclopropyl-1-{1-[2-(difluoromethoxy)ethyl]-5-fluoro-1H-1,3-benzodiazol-2-yl}ethyl]-5-(difluoromethyl)pyrazine-2-carboxamide] it was 9 nM.
In the case of `Cc1cnc(C(=O)N[C@H](c2nc3cc(Cl)c(F)cc3n2C)C2CC2)cn1` [Example 100, N-[(S)-(5-chloro-6-fluoro-1-methyl-1H-1,3-benzodiazol-2-yl)(cyclopropyl)methyl]-5-methylpyrazine-2-carboxamide], it took 19 nM to reach half-maximal inhibition (IC50).
The same measure for `Cc1cnc(C(=O)N[C@H](c2nc3cc(Cl)ccc3n2C2CC2)C2CC2)cn1` [Example 101, N-[(S)-(5-chloro-1-cyclopropyl-1H-1,3-benzodiazol-2-yl)(cyclopropyl)methyl]-5-methylpyrazine-2-carboxamide]: 9 nM; for `COCCn1c([C@@H](NC(=O)c2cnc(C(F)F)cn2)[C@H]2CCOC2)nc2cc(C(F)(F)F)ccc21` [Example 102, 5-(difluoromethyl)-N-[(S)-[1-(2-methoxyethyl)-5-(trifluoromethyl)-1H-1,3-benzodiazol-2-yl][(3R)-oxolan-3-yl]methyl]pyrazine-2-carboxamide]: 13 nM.
`COCCn1c([C@@H](NC(=O)c2cnc(C)cn2)[C@H]2CCCOC2)nc2cc(C(F)(F)F)ccc21` [Example 103, N-[(S)-[1-(2-methoxyethyl)-5-(trifluoromethyl)-1H-1,3-benzodiazol-2-yl][(3R)-oxan-3-yl]methyl]-5-methylpyrazine-2-carboxamide] returned an IC50 of 8 nM.
The compound `CCn1c([C@@H](NC(=O)c2cnc(C)cn2)C(C)(C)O)nc2cc(C(F)(F)F)ccc21` [Example 104, N-[(1R)-1-[1-ethyl-5-(trifluoromethyl)-1H-1,3-benzodiazol-2-yl]-2-hydroxy-2-methylpropyl]-5-methylpyrazine-2-carboxamide] showed a concentration for half-maximal inhibition (IC50) of 17 nM.
As for `Cc1cnc(C(=O)N[C@@H](CC2CC2)c2nc3cc(OC(F)(F)F)ccc3n2C)cn1` [Example 105, N-[(1S)-2-cyclopropyl-1-[1-methyl-5-(trifluoromethoxy)-1H-1,3-benzodiazol-2-yl]ethyl]-5-methylpyrazine-2-carboxamide], half-maximal inhibition (IC50) was put at 8 nM.
The same measure for `Cn1c([C@H](CC2CC2)NC(=O)c2cnc(C(F)F)cn2)nc2cc(Cl)ccc21` [Example 106, N-[(1S)-1-(5-chloro-1-methyl-1H-1,3-benzodiazol-2-yl)-2-cyclopropylethyl]-5-(difluoromethyl)pyrazine-2-carboxamide]: 11 nM.
In the case of `Cc1cnc(C(=O)N[C@H](c2nc3c(Cl)c(F)ccc3n2C)C2CC2)cn1` [Example 107, N-[(S)-(4-chloro-5-fluoro-1-methyl-1H-1,3-benzodiazol-2-yl)(cyclopropyl)methyl]-5-methylpyrazine-2-carboxamide] it was 13 nM; in that of `O=C(N[C@@H](CC1CC1)c1nc2cc(Cl)ccc2n1CCOC(F)F)c1cnc(C(F)F)cn1` [Example 108, N-[(1S)-1-{5-chloro-1-[2-(difluoromethoxy)ethyl]-1H-1,3-benzodiazol-2-yl}-2-cyclopropylethyl]-5-(difluoromethyl)pyrazine-2-carboxamide], 6 nM.
With `CCc1c(Br)ccc2c1nc([C@@H](NC(=O)c1cnc(C)cn1)C(C)(C)O)n2C` [Example 109, N-[(1R)-1-(5-bromo-4-ethyl-1-methyl-1H-1,3-benzodiazol-2-yl)-2-hydroxy-2-methylpropyl]-5-methylpyrazine-2-carboxamide], half-maximal inhibition (IC50) was put at 6 nM.
With `Cc1cnc(C(=O)N[C@H](c2nc3cc(F)c(Br)cc3n2C)C2CC2)cn1` [Example 110, N-[(S)-(6-bromo-5-fluoro-1-methyl-1H-1,3-benzodiazol-2-yl)(cyclopropyl)methyl]-5-methylpyrazine-2-carboxamide], the half-maximal inhibitory concentration (IC50) worked out at 14 nM. This IC50 lies about 2.3-fold higher than the previous one.
In the case of `O=C(N[C@@H](CC1CC1)c1nc2cc(F)c(F)cc2n1CCOC(F)F)c1cnc(C(F)F)cn1` [Example 111, N-[(1S)-2-cyclopropyl-1-{1-[2(difluoromethoxy)ethyl]-5,6-difluoro-1H-1,3-benzodiazol-2-yl}ethyl]-5-(difluoromethyl)pyrazine-2-carboxamide] it was 10 nM.
Regarding `COc1c(Cl)ccc2c1nc([C@@H](NC(=O)c1cnc(C)cn1)C1CC1)n2C` [Example 112, N-[(S)-(5-chloro-4-methoxy-1-methyl-1H-1,3-benzodiazol-2-yl)(cyclopropyl)methyl]-5-methylpyrazine-2-carboxamide], the IC50 stood at 15 nM.
